Columns and labels:
Ribonuclease T1 = molecular target: T1, Ribonuclease T1 (Aspergillus oryzae, UniProt P00651); assay: Visual detection ribonuclease assay, cleavage of Substrate ODN by RNase T1; type: biochemical; design: key to Sensitivity of Substrate ODN to Ribonuclease T1, relative signal intensity: +++ = maximum intensity; ++ = moderate intensity; + = faint but above background; − = negative (identical to background); settings: visual inspection, UV excitation, Substrate 500 nM, 37° C. 60 minutes
T1 sequence (P00651 27-130): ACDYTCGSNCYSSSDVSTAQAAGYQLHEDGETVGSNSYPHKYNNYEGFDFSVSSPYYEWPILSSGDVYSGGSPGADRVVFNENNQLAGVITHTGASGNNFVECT
Experimental: (§1) Nuclease assays were conducted using the method of the invention with both visual and fluorometric detection methods. Substrates were individually mixed in 1× Assay Buffer at a concentration of 50 nM (50 pmoles oligonucleotide in 1 ml volume) for fluorometric detection or at a concentration of 500 nM (50 pmoles of oligonucleotide in 100 ul volume) for visual detection. Test nucleases were added to respective Assay Mixes beginning at 1 ul stock reagent and proceeding with a 1:10 serial dilution until undetectable. Reaction mixes were incubated at 37° C. for 60 minutes. Fluorometric detection was performed as outlined in Example 2. Visual detection was performed as outlined in Example 1.
(§2) Table 7: Sensitivity of different Substrate ODNs to Ribonuclease T1. A series of Substrate ODNs were synthesized and tested for sensitivity to RNase T1 degradation. Stock enzyme was serial diluted to achieve final concentrations of 0.001 units/ml, 0.0001 units/ml, and 0.00001 units/ml as indicated. Reactions were examined for fluorescence emission by visual inspection using an ultraviolet (UV) light source for excitation. Results were scored as +++, ++, +, or − based on relative signal intensity.
(§3) It is commonly accepted that fluorometry provides for high sensitivity. To be useful, the visual method must also offer high sensitivity. Assays were conducted using the method of the invention with visual detection. Substrate SEQ ID NO:30 was mixed in 1× Assay Buffer at a concentration of 500 nM (50 pmoles ODN in 100 ul volume) in thin-walled, UV transparent tubes. […] Dilutions of stock RNase A, RNase 1, and RNase T1 were made in water. Undiluted and diluted nuclease (1 ul) was added to respective 100 ul Assay Mixes resulting in final dilution factors of 10^−2, 10^−3, 10^−4, 10^−5, 10^−6, and 10^−7. Assays were incubated at room temperature for 10 minutes and visually examined for fluorescence emission with UV excitation. […] The experiment took about 30 minutes to perform, including 15 minutes to set-up serial dilutions, 10 minutes incubation, and 5 minutes to visualize and photograph. Thus the method of the invention allows for a rapid, simple, and convenient visual assay for the presence of ribonuclease activity.

Ribonuclease A = molecular target: T2, Ribonuclease A (Bos taurus, UniProt P61823); assay: Visual detection ribonuclease assay, cleavage of Substrate ODN by RNase A; type: biochemical, mammalian; design: key to Sensitivity of Substrate ODN to Ribonuclease A, relative signal intensity: +++ = maximum intensity; ++ = moderate intensity; + = faint but above background; − = negative (identical to background); settings: visual inspection, UV excitation, Substrate 500 nM, 37° C. 60 minutes
T2 sequence (P61823 27-150): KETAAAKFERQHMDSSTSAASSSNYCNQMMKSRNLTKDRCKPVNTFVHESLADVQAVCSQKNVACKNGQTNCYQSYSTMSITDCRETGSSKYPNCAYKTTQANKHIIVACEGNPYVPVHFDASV
Experimental: Nuclease assays were conducted using the methods of the invention. SEQ ID NO:2 and SEQ ID NO:30 oligonucleotides were individually mixed in 1× Assay Buffer at a concentration of 500 nM (50 pmoles ODN in 100 ul volume) in thin-walled, UV transparent microtubes. RNase A (1 ul, diluted to 0;1 ug/ul) was added to the respective Assay Mixes. […] Assays were set up directly in microtubes as follows:
Assay Mixes were incubated at room temperature for 10 minutes. Assays were visually examined for fluorescence emission directly in the assay tubes without further manipulation. Tubes were suspended above an ultraviolet light source, visually inspected, and photographed using a digital camera. […] The “positive” and “control” reactions appeared markedly different and were easily distinguished. […] The “positive” and “control” reactions were not markedly different to visual inspection.
as §1
as §2, with “6:” for “7:”, “A.” for “T1.”, “A” for “T1”, “1 ng/ml, 100 pg/ml,” for “0.001 units/ml, 0.0001 units/ml,”, “10 pg/ml” for “0.00001 units/ml”
as §3

Substance | Sensitivity of Substrate ODN to Ribonuclease T1, relative signal intensity (Ribonuclease T1; RNase T1 10^−3 units/ml) | Sensitivity of Substrate ODN to Ribonuclease T1, relative signal intensity (Ribonuclease T1; RNase T1 10^−4 units/ml) | Sensitivity of Substrate ODN to Ribonuclease T1, relative signal intensity (Ribonuclease T1; RNase T1 10^−5 units/ml) | Sensitivity of Substrate ODN to Ribonuclease A, relative signal intensity (Ribonuclease A; RNase A 10 pg/ml) | Sensitivity of Substrate ODN to Ribonuclease A, relative signal intensity (Ribonuclease A; RNase A 100 pg/ml) | Sensitivity of Substrate ODN to Ribonuclease A, relative signal intensity (Ribonuclease A; RNase A 1 ng/ml)
5′ Fluorescein-AcuaA-Dabcyl 3′ (NACUAAN; 5' fluorescein and 3' Dabcyl labels, nucleotide chemistry not given here) [SEQ ID NO:17] | − | − | − | − | + | +++
5′ Fluorescein-AgucAA-Dabcyl 3′ (NAGUCAAN; 5' fluorescein and 3' Dabcyl labels, nucleotide chemistry not given here) [SEQ ID NO:10] | + | − | − | − | − | ++
5′ Fluorescein-AuagA-Dabcyl 3′ (NAUAGAN; 5' fluorescein and 3' Dabcyl labels, nucleotide chemistry not given here) [SEQ ID NO:16] | +++ | +++ | − | − | ++ | +++
5′ Fluorescein-AgcuAA-Dabcyl 3′ (NAGCUAAN; 5' fluorescein and 3' Dabcyl labels, nucleotide chemistry not given here) [SEQ ID NO:11] | + | − | − | − | − | ++
5′ Fluorescein-AcgaA-Dabcyl 3′ (NACGAAN; 5' fluorescein and 3' Dabcyl labels, nucleotide chemistry not given here) [SEQ ID NO:12] | +++ | ++ | − | − | − | ++
5′ Fluorescein-AcguA-Dabcyl 3′ (NACGUAN; 5' fluorescein and 3' Dabcyl labels, nucleotide chemistry not given here) [SEQ ID NO:15] | +++ | + | − | − | + | +++
5′ Fluorescein-AAcAA-Dabcyl 3′ (NAACAAN; 5' fluorescein and 3' Dabcyl labels, nucleotide chemistry not given here) [SEQ ID NO:5] | − | − | − | − | + | ++
5′ Fluorescein-AgucaA-Dabcyl 3′ (NAGUCAAN; 5' fluorescein and 3' Dabcyl labels, nucleotide chemistry not given here) [SEQ ID NO:23] | ++ | − | − | − | + | +++
5′ Fluorescein-AgaAA-Dabcyl 3′ (NAGAAAN; 5' fluorescein and 3' Dabcyl labels, nucleotide chemistry not given here) [SEQ ID NO:9] | + | + | − | − | − | −
5′ Fluorescein-AaugcA-QSY-7 3′ (NAAUGCAN; 5' fluorescein and 3' QSY-7 labels, nucleotide chemistry not given here) [SEQ ID NO:29] | +++ | +++ | ++ | + | +++ | +++
5′ Fluorescein-AacAA-Dabcyl 3′ (NAACAAN; 5' fluorescein and 3' Dabcyl labels, nucleotide chemistry not given here) [SEQ ID NO:8] | − | − | − | + | +++ | +++
5′ Fluorescein-AaggucA-QSY-7 3′ (NAAGGUCAN; 5' fluorescein and 3' QSY-7 labels, nucleotide chemistry not given here) [SEQ ID NO:28] | +++ | +++ | ++ | + | ++ | +++
5′ Fluorescein-AguAA-Dabcyl 3′ (NAGUAAN; 5' fluorescein and 3' Dabcyl labels, nucleotide chemistry not given here) [SEQ ID NO:7] | + | − | − | − | − | +

Source: US7276337B2, “Compositions and methods for visual ribonuclease detection assays” (Integrated DNA Technologies, Inc., priority 2000, dated 2007)
